In US10201523B2, “Use of wilforlide A for overcoming chemotherapy resistance” (WESTERN UNIVERSITY OF HEALTH SCIENCES, priority 2013, dated 2019):
Several values for one entry are separate records, joined by “and”; a condition that tells them apart may be missing. Identical values can stand only once.

Legend:
DU145-TxR = assay: SRB cell viability assay, docetaxel with/without wilforlide A pretreatment; format: cell-based; conditions: DU145-TxR; for viability at 1 pM / viability at 0.0001 µM / viability at 0.000333 µM / viability at 0.001 µM / viability at 0.00333 µM / viability at 0.01 µM / viability at 0.0333 µM / viability at 0.1 µM: 72 h; for A at 565 nm: background = 0.046
Excerpt: FIG. 4 summarizes the data of Tables 18 and 19 in a graphical format.

PC3 = assay: as above; conditions: PC3
Method: Following the 72 hour wilforlide A treatment, a sulforhodamine B (SRB) assay was used to quantitate living cells. To perform the assay, the wilforlide A media was aspirated from each well, and replaced with a 10% solution of cold trichloroacetic acid (TCA) (Cat #: T6399, purchased from Sigma-Aldrich), and incubated for one hour at 4° C. After the TCA incubation, the TCA solution was aspirated, and the cells were washed five times with tap water. After removing the last wash, the plates were left with lids off at room temperature until the surfaces were dry, which took one to two hours. Then 50 μl of a 0.4% solution of sul-forhodamine B (SRB) sodium salt (Cat #: S9012, purchased from Sigma-Aldrich) was added to each well and the plates were incubated at room temperature for 20 to 30 minutes. Afterwards, the wells were washed five times with a 1% acetic acid solution in 10 mM TRIS base (Cat #: 161-0719, purchased from Bio-Rad Laboratories, Hercules, Calif.). The plates were subsequently left to dry for several hours or overnight. SRB that remained in the dried wells was solubilized by adding 100 μl of SRB solubilization solution (10 mM TRIS base) to each well, and placing the plates either on a gently-moving shaker or letting the plates remain stationary at room temperature until the SRB dissolves, which takes about five to ten minutes. The amount of SRB in each well, which correlated directly to the number of living cells at fixation, was determined spectrophotometrically at an absorbance of 565 nm by a microplate reader.
In these comparisons, the in vitro IC50 of a tested chemotherapeutic drug (D) in cell culture was compared to the drug's IC50 when drug treatment followed pretreatment of the cells with wilforlide A (Purchased from PI & PI Technology Inc. of Guangzhou, China or the National Institutes for Food and Drug Control in Beijing, China).
Triplicate wells were assigned to each experimental condition tested, and a 24 hour recovery period for the cells following the seeding of the wells was allowed. During the recovery period, the cells were incubated at 37° C. and 5% CO2.
At the end of the two hour pre-treatment period, 50 μl aliquots of the desired chemotherapeutic drug RPMI medium were added according to the amounts provided in Table 2.
After adding the various doses of chemotherapeutic drugs, as described above, the cells were incubated for an additional 72 hours under the same temperature and atmospheric conditions used for the pre-treatment step.
The cells were then incubated for 72 hours at 37° C. and 5% CO2. After the 72 hour incubation, sulforhodamine B (SRB) assays were performed as described in Example 1 to quantitate living cells.

[1] = no wilforlide A pre-Tx, docetaxel 0.001 nM 72 h
[2] = no wilforlide A pre-Tx, docetaxel 0.1 nM 72 h
[3] = no wilforlide A pre-Tx, docetaxel 0.333 nM 72 h
[4] = no wilforlide A pre-Tx, docetaxel 1 nM 72 h
[5] = no wilforlide A pre-Tx, docetaxel 3.33 nM 72 h
[6] = no wilforlide A pre-Tx, docetaxel 10 nM 72 h
[7] = no wilforlide A pre-Tx, docetaxel 33.3 nM 72 h
[8] = no wilforlide A pre-Tx, docetaxel 100 nM 72 h
[9] = wilforlide A 2.5 μg/ml pre-Tx, docetaxel 0.001 nM 72 h
[10] = wilforlide A 2.5 μg/ml pre-Tx, docetaxel 0.1 nM 72 h
[11] = wilforlide A 2.5 μg/ml pre-Tx, docetaxel 0.333 nM 72 h
[12] = wilforlide A 2.5 μg/ml pre-Tx, docetaxel 1 nM 72 h
[13] = wilforlide A 2.5 μg/ml pre-Tx, docetaxel 3.33 nM 72 h
[14] = wilforlide A 2.5 μg/ml pre-Tx, docetaxel 10 nM 72 h
[15] = wilforlide A 2.5 μg/ml pre-Tx, docetaxel 33.3 nM 72 h
[16] = wilforlide A 2.5 μg/ml pre-Tx, docetaxel 100 nM 72 h
[17] = no wilforlide A pre-Tx (control of Table 4), docetaxel 0.001 nM 72 h
[18] = no wilforlide A pre-Tx (control of Table 4), docetaxel 0.1 nM 72 h
[19] = no wilforlide A pre-Tx (control of Table 4), docetaxel 0.333 nM 72 h
[20] = no wilforlide A pre-Tx (control of Table 4), docetaxel 1 nM 72 h
[21] = no wilforlide A pre-Tx (control of Table 4), docetaxel 3.33 nM 72 h
[22] = no wilforlide A pre-Tx (control of Table 4), docetaxel 10 nM 72 h
[23] = no wilforlide A pre-Tx (control of Table 4), docetaxel 33.3 nM 72 h
[24] = no wilforlide A pre-Tx (control of Table 4), docetaxel 100 nM 72 h
[25] = no wilforlide A pre-Tx (control of Table 6), docetaxel 0.001 nM 72 h
[26] = no wilforlide A pre-Tx (control of Table 6), docetaxel 0.1 nM 72 h
[27] = no wilforlide A pre-Tx (control of Table 6), docetaxel 0.333 nM 72 h
[28] = no wilforlide A pre-Tx (control of Table 6), docetaxel 1 nM 72 h
[29] = no wilforlide A pre-Tx (control of Table 6), docetaxel 3.33 nM 72 h

CC(=O)O[C@@]12CO[C@@H]1C[C@H](O)[C@@]1(C)C(=O)[C@H](O)C3=C(C)[C@@H](OC(=O)[C@H](O)[C@@H](NC(=O)OC(C)(C)C)c4ccccc4)C[C@@](O)([C@@H](OC(=O)c4ccccc4)[C@H]21)C3(C)C [docetaxel]
viability at 1 pM (DU145-TxR; [1]): 100%
viability at 0.0001 µM (DU145-TxR; [2]): 104%
viability at 0.000333 µM (DU145-TxR; [3]): 99%
viability at 0.001 µM (DU145-TxR; [4]): 98.2%
viability at 0.00333 µM (DU145-TxR; [5]): 98.5%
viability at 0.01 µM (DU145-TxR; [6]): 101%
viability at 0.0333 µM (DU145-TxR; [7]): 99.2%
viability at 0.1 µM (DU145-TxR; [8]): 97.4%
viability at 1 pM (DU145-TxR; [9]): 100%
viability at 0.0001 µM (DU145-TxR; [10]): 104%
viability at 0.000333 µM (DU145-TxR; [11]): 102%
viability at 0.001 µM (DU145-TxR; [12]): 104%
viability at 0.00333 µM (DU145-TxR; [13]): 98.4%
viability at 0.01 µM (DU145-TxR; [14]): 102%
viability at 0.0333 µM (DU145-TxR; [15]): 94.1%
viability at 0.1 µM (DU145-TxR; [16]): 44.7%
mean A (DU145-TxR; [1]): 2.257
A at 565 nm (DU145-TxR; [1]): 2.285 and 2.199 and 2.289
mean A (DU145-TxR; [2]): 2.346
A at 565 nm (DU145-TxR; [2]): 2.354 and 2.413 and 2.272
mean A (DU145-TxR; [3]): 2.235
A at 565 nm (DU145-TxR; [3]): 2.281 and 2.251 and 2.175
mean A (DU145-TxR; [4]): 2.216
A at 565 nm (DU145-TxR; [4]): 2.279 and 2.233 and 2.137
mean A (DU145-TxR; [5]): 2.224
A at 565 nm (DU145-TxR; [5]): 2.207 and 2.230 and 2.236
mean A (DU145-TxR; [6]): 2.272
A at 565 nm (DU145-TxR; [6]): 2.254 and 2.359 and 2.203
mean A (DU145-TxR; [7]): 2.239
A at 565 nm (DU145-TxR; [7]): 2.145 and 2.270 and 2.303
mean A (DU145-TxR; [8]): 2.198
A at 565 nm (DU145-TxR; [8]): 2.153 and 2.224 and 2.217
mean A (DU145-TxR; [9]): 2.137
A at 565 nm (DU145-TxR; [9]): 2.092 and 2.151 and 2.170
mean A (DU145-TxR; [10]): 2.220
A at 565 nm (DU145-TxR; [10]): 2.248 and 2.263 and 2.151
mean A (DU145-TxR; [11]): 2.169
A at 565 nm (DU145-TxR; [11]): 2.187 and 2.102 and 2.218
mean A (DU145-TxR; [12]): 2.217
A at 565 nm (DU145-TxR; [12]): 2.177 and 2.229 and 2.246
mean A (DU145-TxR; [13]): 2.103
A at 565 nm (DU145-TxR; [13]): 2.064 and 2.090 and 2.155
mean A (DU145-TxR; [14]): 2.176
A at 565 nm (DU145-TxR; [14]): 2.171 and 2.204 and 2.155
mean A (DU145-TxR; [15]): 2.011
A at 565 nm (DU145-TxR; [15]): 2.086 and 2.018 and 1.930
mean A (DU145-TxR; [16]): 0.956
A at 565 nm (DU145-TxR; [16]): 0.987 and 0.926 and 0.957
% viable (PC3; [17]): 100.0%
mean A (PC3; [17]): 1.839
A at 565 nm (PC3; no wilforlide A pre-Tx (control of Table 4), docetaxel 0.001 nM 72 h, background = 0.043): 1.827 and 1.892 and 1.800
% viable (PC3; [18]): 102.0%
mean A (PC3; [18]): 1.876
A at 565 nm (PC3; no wilforlide A pre-Tx (control of Table 4), docetaxel 0.1 nM 72 h, background = 0.043): 1.875 and 1.878
% viable (PC3; [19]): 97.7%
mean A (PC3; [19]): 1.796
A at 565 nm (PC3; no wilforlide A pre-Tx (control of Table 4), docetaxel 0.333 nM 72 h, background = 0.043): 1.845 and 1.808 and 1.737
% viable (PC3; [20]): 74.7%
mean A (PC3; [20]): 1.374
A at 565 nm (PC3; no wilforlide A pre-Tx (control of Table 4), docetaxel 1 nM 72 h, background = 0.043): 1.452 and 1.366 and 1.306
% viable (PC3; [21]): 46.3%
mean A (PC3; [21]): 0.851
A at 565 nm (PC3; no wilforlide A pre-Tx (control of Table 4), docetaxel 3.33 nM 72 h, background = 0.043): 0.862 and 0.832 and 0.860
% viable (PC3; [22]): 22.5%
mean A (PC3; [22]): 0.415
A at 565 nm (PC3; no wilforlide A pre-Tx (control of Table 4), docetaxel 10 nM 72 h, background = 0.043): 0.432 and 0.409 and 0.404
% viable (PC3; [23]): 16.4%
mean A (PC3; [23]): 0.303
A at 565 nm (PC3; no wilforlide A pre-Tx (control of Table 4), docetaxel 33.3 nM 72 h, background = 0.043): 0.321 and 0.295 and 0.293
% viable (PC3; [24]): 15.9%
mean A (PC3; [24]): 0.293
A at 565 nm (PC3; no wilforlide A pre-Tx (control of Table 4), docetaxel 100 nM 72 h, background = 0.043): 0.300 and 0.270 and 0.311
% viable (PC3; [25]): 100.0%
mean A (PC3; [25]): 1.952
A at 565 nm (PC3; no wilforlide A pre-Tx (control of Table 6), docetaxel 0.001 nM 72 h, background = 0.044): 1.888 and 2.010 and 1.957
% viable (PC3; [26]): 100.7%
mean A (PC3; [26]): 1.966
A at 565 nm (PC3; no wilforlide A pre-Tx (control of Table 6), docetaxel 0.1 nM 72 h, background = 0.044): 1.980 and 1.925 and 1.992
% viable (PC3; [27]): 93.1%
mean A (PC3; [27]): 1.817
A at 565 nm (PC3; no wilforlide A pre-Tx (control of Table 6), docetaxel 0.333 nM 72 h, background = 0.044): 1.735 and 1.845 and 1.871
% viable (PC3; [28]): 70.9%
mean A (PC3; [28]): 1.384
A at 565 nm (PC3; no wilforlide A pre-Tx (control of Table 6), docetaxel 1 nM 72 h, background = 0.044): 1.398 and 1.314 and 1.441
% viable (PC3; [29]): 46.6%
mean A (PC3; [29]): 0.909
A at 565 nm (PC3; no wilforlide A pre-Tx (control of Table 6), docetaxel 3.33 nM 72 h, background = 0.044): 0.895 and 0.942 and 0.889
